# Legend:
# [1] = test system: KUCaP-1 human patient derived prostate cancer model; assay: anti-tumor activity in KUCaP-1 patient derived prostate cancer xenograft model; assay type: in vivo, mice; details: KUCaP-1, day 32
# C4-2 cells [2] = assay: cell surface binding of PSMA antibody-chelator conjugate by flow cytometry after co-culture with AR antagonists; assay type: cell-based; details: 10 μM darolutamide; 7, 14 and 21 days co-culturing; saturating conjugate concentrations; vs DMSO reference
# Description: (§1) The effects of PSMA-TTC compound A′ and compound B (darolutamide, ODM-201) or compound C (enzalutamide) in PSMA overexpressing prostate cancer cell lines LNCaP and C4-2 were investigated in vitro. LNCaP (hormone sensitive) and C4-2 (hormone insensitive) cells were co-cultured in presence of either enzalutamide or darolutamide/ODM-201 and the effect on cell binding of PSMA-conjugate and cytotoxicity of PSMA-TTC was evaluated.
# (§2) C4-2 and LNCaP cells were seeded in similar cell medium (RPMI/10% FBS/1% HEPES/1% MEM NEAA/1% NaPyruvate/1% L-glutamine). One day after seeding, cells were exposed to either enzalutamide (1 μM), darolutamide (=ODM-201) (10 μM) or DMSO (0.1% (v/v); reference). Seven, 14 and 21 days after co-culturing, the cells were analyzed for cell surface binding of PSMA antibody-chelator conjugate by flow cytometry. The binding of PSMA conjugate at saturating concentrations increased in both cell lines after treatment with the AR antagonists: maximal binding of PMSA conjugate was increased by 1 μM enzalutamide by 1.9 to 2.8 fold and by 10 μM darolutamide by 1.7-3.6 fold. Similar results were obtained in LNCaP cells. In addition, cells pre-treated in the presence or absence of AR antagonists at the respective concentrations entered cytotoxicity experiments using cell titer Glo (Promega) as readout for cell viability.
# C4-2 cells [3] = assay: in vitro cytotoxicity of PSMA-TTC with AR antagonist pre-treatment, cell titer Glo cell viability; assay type: cell-based; details: then PSMA-TTC dose titration (50 MBq/mg), 5 days incubation
# Description: as §1
# as §2, with “The binding of PSMA conjugate at saturating concentrations increased in both cell lines after treatment with the AR antagonists: maximal binding of PMSA conjugate was increased by 1 μM enzalutamide by 1.9 to 2.8 fold and by 10 μM darolutamide by 1.7-3.6 fold. Similar results were obtained in LNCaP cells.” left out
# Respective cells pretreated for 0 or 7 days with AR antagonists were seeded on Day −1 at an appropriate cell density (e.g. 1000 cells/well). […] Cell viability was measured after incubation for 5 days in the presence of dose titrations of PSMA-TTC or corresponding controls. […]
# [4] = test system: ST1273 human patient derived prostate cancer model; assay: anti-tumor activity in ST1273 patient derived prostate cancer xenograft model; assay type: in vivo, mice
# [5] = ST1273, 26 days after dosing/start of treatment
Structure (SMILES),"PD, progressive disease (mice/group) [1]","Response rate (RR) ([1]; PSMA-TTC 150 kBq/kg i.v., darolutamide 200 mg/kg QD p.o.)",increase of maximal binding of PSMA conjugate (C4-2 cells [2]),sensitivity to growth inhibition by PSMA-TTC (C4-2 cells [3]; darolutamide 10 μM for 7 days),"complete response, share of the mice [4, 5] [%]","partial response, share of the mice [4, 5] [%]","CR, complete response (mice/group) ([4]; ST1273, day 26)","PR, partial response (mice/group) ([4]; ST1273, day 26)","Response rate (RR) ([4]; ST1273, day 26, PSMA-TTC 250 kBq/kg single i.v., enzalutamide 30 mg/kg QD×28 p.o.)",sensitivity to growth inhibition by PSMA-TTC (C4-2 cells [3]; enzalutamide 1 μM for 7 days)
"CC(O)c1cc(C(=O)N[C@@H](C)Cn2ccc(-c3ccc(C#N)c(Cl)c3)n2)n[nH]1 (stereo partly drawn) [darolutamide, N-((S)-1-(3-(3-Chloro-4-cyanophenyl)-1H-pyrazol-1-yl-)-propan-2-yl)-5-(1-hydroxyethyl)-1H-pyrazole-3-carboxamide]",(PD: 10/10),RR: 0%,1.7-3.6 fold,increased sensitivity to growth inhibition by PSMA-TTC,,,,,,
CNC(=O)c1ccc(N2C(=S)N(c3ccc(C#N)c(C(F)(F)F)c3)C(=O)C2(C)C)cc1F [enzalutamide],,,,,33,67,"(CR: 3/9,",PR: 6/9),RR: 100%,increased sensitivity to growth inhibition by PSMA-TTC

# Reference: US20220118123A1, “COMBINATION OF AR ANTAGONISTS AND TARGETED THORIUM CONJUGATES” (Bayer Aktiengesellschaft, priority 2019, published 2022)
